Legend:
TSPO [1] = target: T1, TSPO (Rattus norvegicus, UniProt P16257); test: ex vivo biodistribution after PET scan; format: in vivo; details: 60 min after tracer injection
TSPO [2] = target: T1, TSPO; test: correlation of specific binding in control rats with [^3H]-PK11195 binding; format: in vivo

T1 sequence (P16257 whole entry): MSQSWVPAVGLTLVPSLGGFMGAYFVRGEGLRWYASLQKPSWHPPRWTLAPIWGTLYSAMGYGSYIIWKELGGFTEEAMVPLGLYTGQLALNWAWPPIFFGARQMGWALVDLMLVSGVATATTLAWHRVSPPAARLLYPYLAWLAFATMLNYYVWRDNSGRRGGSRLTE

Ex vivo biodistribution SUV, bulbus olfactorius (TSPO [1]; HSE rats): 1.59 SUV | Ex vivo biodistribution SUV, cerebellum (TSPO [1]; HSE rats): 0.88 SUV | Ex vivo biodistribution SUV, medulla (TSPO [1]; HSE rats): 1.29 SUV | Ex vivo biodistribution SUV, pons (TSPO [1]; HSE rats): 1.54 SUV | Ex vivo biodistribution SUV, bulbus olfactorius (TSPO [1]; control rats): 1.20 SUV | Ex vivo biodistribution SUV, cerebellum (TSPO [1]; control rats): 0.51 SUV | Ex vivo biodistribution SUV, medulla (TSPO [1]; control rats): 0.61 SUV | Ex vivo biodistribution SUV, pons (TSPO [1]; control rats): 0.59 SUV | R, correlation of specific binding in control rats with [^3H]-PK11195 binding (TSPO [2]; Pearson correlation, [^3H]-PK11195 binding from Kurumaji et al. [25]): 0.96 | slope of the linear regression of specific binding vs [^3H]-PK11195 binding (TSPO [2]; control rats): 0.010
Compound: CC[C@@H](C)N(C)C(=O)c1cc2ccccc2c(-c2ccccc2Cl)n1 [[^11C]-(R)-PK11195, (R)-N-methyl-N-(1-methylpropyl)-1-(2-chlorophenyl)isoquinoline-3-carboxamide]

Source: paper PMC2763079 (Molecular Imaging and Biology, 2009)
